Where “and” joins values, the source holds several entries; their conditions need not be identical. Identical values can stand only once. Like-named read-outs stand apart in the source and are kept apart here.
What was measured:
[1] = Mouse microsomal stability; details: mouse microsomes
[2] = Dynamic light scattering particle size; assay type: physicochemical; details: DLS, 40 μM compound; for Particle size (with Tween 20): with detergent; for Particle size (no Tween): without detergent
DENV2 = experiment: Antiviral activity (viral infectivity) assay, single-cycle viral yield; assay type: cell-based, Dengue virus 2; details: for IC90: Dengue virus
VSV-eGFP = experiment: microbe, parasite or virus in culture; assay type: cell-based, vesicular stomatitis virus; details: for inhibition at 5 µM / inhibition at 10 µM: Vesicular stomatitis virus, 6 h; for inhibition at 5 µM: read-out: VSV 5 μM; for inhibition at 10 µM: read-out: VSV 10 μM
[3] = Cytotoxicity assay (CellTiter-Glo); details: hamster
Protocol: (§1) BHK21 cells (MEM with 2% FBS) were incubated with varying concentrations of inhibitor in a 96-well white plate for 24 hours at 37° C. and 5% CO2. CellTiter-Glo (Promega) solution was used to measure viability following the manufacturer's instructions. Luminescence was measured using a Biotek Synergy plate reader. […] The maximum concentration tested was 100 μM.

DENV2 sE2 [4] = molecular target: T1, DENV2 sE2 (Dengue virus type 2, UniProt P14340); experiment: biochemical; assay type: binding, Dengue virus 2; details: for IC50: IC50 (AlphaScreen)
DENV2 sE2 [5] = molecular target: T1, DENV2 sE2; experiment: biochemical; assay type: binding, Dengue virus 2
DENV1, 2, 3, 4; ZIKV = experiment: Plaque reduction assay (PRNT); assay type: cell-based; details: Zika virus, DENV1, read-out: EC50 (PRNT)
Protocol: DENV1, 2, 3, 4 were tested on BHK-21 cells, and ZIKV was tested on Vero cells. Virus inocula were diluted in EBSS to 2500 pfu/ml as the final concentration, and were pre-incubated with different concentrations of small molecule inhibitors (2% DMSO vol/vol final concentration) for 45 min at 37° C., 5% CO2. The mixture (200 μl, 500 pfu of virus) was then added to cells for 1 hour (37° C., 5% CO2) to allow infection, after which the inoculum was removed, and the cells were washed with 1×PBS to remove unbound virus and compound. Cells were overlaid with carboxylmethylcellulose and incubated at 37° C., 5% CO2 to allow the formation of plaques (4 days for DENV1, 2, 3, 4 and 2-3 days for ZIKV). The cells were fixed and plaques visualized by staining of the cell monolayers with crystal violet Empirical analysis was performed to determine the PRNT50 (EC50 (PRNT)) value, defined as the inhibitor concentration needed to reduce plaque formation by 50%.

AmpC β-lactamase = AmpC β-lactamase (Escherichia coli, UniProt P00811); experiment: biochemical
in vitro = details: hamster
Protocol: as §1

[6] = T1/2 (mouse microsome), mouse microsomal stability
[7] = DENV2, concentration that reduces single-cycle viral yield by 10-fold, read-out: IC90 (DENV2 infectivity)
[8] = concentration that inhibits 50% luminescence signal in the AlphaScreen competition assay, Table 1
[9] = DENV2, read-out: IC90 versus DENV2
[10] = IC50 (AmpC, Triton), with detergent (0.01% Triton X-100)

Chain of AmpC β-lactamase (P00811 20-377): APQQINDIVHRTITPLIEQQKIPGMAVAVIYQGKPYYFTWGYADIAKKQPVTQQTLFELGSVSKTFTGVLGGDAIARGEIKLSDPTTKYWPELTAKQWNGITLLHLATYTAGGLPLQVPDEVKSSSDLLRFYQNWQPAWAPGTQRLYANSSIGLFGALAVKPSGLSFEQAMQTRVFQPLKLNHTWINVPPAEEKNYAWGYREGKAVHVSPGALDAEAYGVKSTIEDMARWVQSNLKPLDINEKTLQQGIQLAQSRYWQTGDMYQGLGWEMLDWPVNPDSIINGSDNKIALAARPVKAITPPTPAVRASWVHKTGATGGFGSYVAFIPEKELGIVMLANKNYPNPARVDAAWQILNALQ

| Structure (SMILES) | half-life [1, 6] [min] | Particle size (with Tween 20) [2] | Particle size (no Tween) [2] | IC90 (DENV2; [7]) [nM] | inhibition at 5 µM (VSV-eGFP) [%] | inhibition at 10 µM (VSV-eGFP) [%] | CC50 at 24 h [3] [µM] | IC50 (DENV2 sE2 [4]; [8]) [µM] | Kd (DENV2 sE2 [5]) [nM] | also measured |
| --- | --- | --- | --- | --- | --- | --- | --- | --- | --- | --- |
| CCCc1nn2c(=O)cc(CSc3nc(-c4ccc(C)cc4)nc4cc(=O)[nH]n34)nc2s1 [Compound G199-0398] | 70.6 | 7.2 (40 μM) nm | 268 (40 μM) nm | 8800 ± 200 | 33 | 59 | 68 | 7 ± 3 |  | half-life ([1]; stability half-life (text, printed Ti)): ~70 min; inhibition of VSV-eGFP in counter screen (VSV-eGFP): strong inhibition efficiency |
| Cc1ccc(CCNC(=O)c2cnn3c(O)c(Cc4cc(C)ccc4C)c(C)nc23)cc1 [Compound K786-9739] | 14.9 | 7.1 (40 μM) nm | 628 (40 μM) nm | 3100 ± 100 | 35 | 63 | 81 | 3 ± 1.7 | 1300 | IC90 (DENV2; [9]): 3000 nM |
| CCOc1ccc(CCNC(=O)c2cnn3c(O)cc(C4CCN(C(=O)OC(C)(C)C)CC4)nc23)cc1 [Compound C429-0385] |  |  |  |  |  |  | > 100 |  |  | IC90 (DENV2; DENV2, read-out: IC90 (DENV2 infectivity)): ~3000 nM; EC50 (DENV1, 2, 3, 4; ZIKV): 600 nM; IC50 (DENV2 sE2 [4]; Table 3): 7.6 µM and 5.3 µM |
| NC(=O)c1cccc(-c2cc(Nc3ccc(OC(F)(F)F)cc3)ncn2)c1 [GNF2, reference compound] |  |  |  |  |  |  |  |  |  | competition of AlphaScreen signal (DENV2 sE2 [4]; GNF2-biotin on donor beads, His6-tagged DENV2 sE2 on acceptor beads): competed away in a dose-dependent fashion |
| Cc1nc2c(C(=O)NCc3ccc4c(c3)OCO4)cnn2c(O)c1Cc1ccccc1F [Compound C218-0288] |  |  |  |  |  |  |  |  |  | IC50 (DENV2 sE2 [4]; Table 3): 1.9 µM |
| Oc1ccc(C2NCCc3c2[nH]c2ccc(Cl)cc32)cc1O (stereo not drawn) [Compound C200-9144] | 55.6 | 8.3 (40 μM) nm | 1443 (40 μM) nm | 1200 ± 400 | 76 | 77 | > 50 | 2.6 ± 1.3 | 1200 | IC90 (DENV2; [9]): 3000 nM; inhibition of VSV-eGFP in counter screen (VSV-eGFP): less potency |
| Cc1nc2c(C(=O)NCC3CCCN(C)C3)cnn2c(O)c1Cc1ccc(F)cc1 (stereo not drawn) [JBJ-16-104] |  |  |  |  |  |  |  |  |  | IC50 (AlphaScreen) (DENV2 sE2 [4]; Table 2): No competition |
| Cc1nc2c(C(=O)NC3CCN(C)CC3)cnn2c(O)c1Cc1ccc(F)cc1 [JBJ-16-103] |  |  |  |  |  |  |  |  |  | IC50 (AlphaScreen) (DENV2 sE2 [4]; Table 2): No competition |
| COc1ccc(Nc2cc(C)c3cc(NC(=O)c4ccc(N(C)C)cc4)ccc3n2)cc1 [Compound C066-4182] | 5.3 |  |  | 17000 ± 4500 | 5 | 22 | > 50 | 1.4 ± 1.1 | 2200 |  |
| CN(CC(=O)N(Cc1ccc(C2CCCCC2)cc1)c1ccc(C(=O)O)cc1)S(=O)(=O)c1c(F)c(F)c(F)c(F)c1F [Compound S7337] | 3.2 | 8.2 (40 μM) nm | 144 (40 μM) nm | 2700 ± 1000 |  |  | 12.7 | 4.1 ± 1.8 | 1300 | IC90 (DENV2; [9]): 3000 nM; inhibition of VSV-eGFP in counter screen (VSV-eGFP): less potency; IC50 (AmpC β-lactamase; IC50 (AmpC), without detergent): > 100 µM; IC50 (AmpC β-lactamase; [10]): > 100 µM |
| Cc1cc(C(C#N)c2ccc(Cl)cc2)c(Cl)cc1NC(=O)c1cc(I)cc(I)c1O (stereo not drawn) [Compound S4105] | > 120 | 13.1 (40 μM) nm | 82 (40 μM) nm | 800 ± 300 |  |  |  | 0.6 ± 0.2 | 900 | IC90 (DENV2; [9]): 3000 nM; VSV 5 μM (VSV-eGFP): 60%; VSV 10 μM (VSV-eGFP): 64%; IC50 (AmpC β-lactamase; IC50 (AmpC), without detergent): 19.5 µM; IC50 (AmpC β-lactamase; [10]): > 100 µM; CC50 at 24 h (in vitro): 50 µM |
| Cc1nc2c(C(=O)NCc3cccnc3)cnn2c(O)c1Cc1ccc(F)cc1 [JBJ-16-105] |  |  |  |  |  |  |  |  |  | (Anti-DENV2)% at 3 μM (DENV2; 3 μM): 20%; (Anti-DENV2)% at 10 μM (DENV2; 10 μM): 86%; IC50 (DENV2 sE2 [4]; Table 2): > 10 µM |
| COC(=O)c1ccc(Cl)cc1NC(=O)CSc1ncc(S(=O)(=O)c2ccc(Br)cc2)c(=O)[nH]1 [Compound C200-5340] | 4.2 | 7.5 (40 μM) nm | 966 (40 μM) nm | 7200 ± 3500 | 20 | 51 | > 50 | 3 ± 1.1 | 7100 | inhibition of VSV-eGFP in counter screen (VSV-eGFP): less potency |
| COc1cc(C(=O)NS(=O)(=O)c2ccccc2C)ccc1Cc1cn(C)c2ccc(NC(=O)OC3CCCC3)cc12 [Compound S1633] | 37.7 | 9.2 (40 μM) nm | 823 (40 μM) nm | 7000 ± 2800 | 12 | 40 |  | 3.1 ± 1 | 5200 | IC50 (AmpC β-lactamase; IC50 (AmpC), without detergent): 36.6 µM; IC50 (AmpC β-lactamase; [10]): > 100 µM; CC50 at 24 h (in vitro): 50 µM |

From patent US20200360381A1, “COMPOUNDS FOR TREATING DENGUE VIRUS INFECTION AND OTHER VIRAL INFECTIONS” (priority 2017, published 2020)
